Assay results reported in patent publication US20040044006A1, “Methods of use of quinolone compounds against pneumococcal and haemophilus bacteria” (priority 1999, published 2004).
≈ marks a conversion by molar mass, not a printed value. Where two headings read alike, the source gives them in different places.

Columns and labels:
[1] = test system: quinolone susceptible pneumococci (ciprofloxacin MICs ≦4.0 μg/ml); test: Agar dilution MICs of 207 quinolone susceptible pneumococcal strains; type: cell-based, Streptococcus pneumoniae; conditions: Streptococcus pneumoniae, agar dilution; for MIC90: read-out: MIC90; for MIC: read-out: MIC range
Procedure, shortened: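 Agar dilution MICs by prior methods on Mueller-Hinton agar with 5% sheep blood; S. pneumoniae ATCC 49619 among QC strains each run. Isolates were recent U.S. strains plus some from South Africa, Europe and Korea.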

[2] = test system: pneumococci with ciprofloxacin MICs ≧8 μg/ml; test: Quinolone agar dilution MICs of 28 ciprofloxacin resistant pneumococcal strains, correlated with QRDR mutations; type: cell-based, Streptococcus pneumoniae
Protocol: Additionally these strains were tested for mutations in parC, gyrA, parE, and gyrB (Pan, et al. Antimicrob. Agents Chemother. 40:2321-2326, 1996) and for efflux mechanism (Brenwald, et ail., Antimicrob. Agents Chemother. 42:2032-2035, 1998).
Gemifloxacin susceptibility powder was obtained from SmithKline Beecham Laboratories, Harlow, UK. Agar dilution methodology was performed on 28 strains as described previously (M. R. Jacobs, Clin. Infect. Dis. 15: 119-127, […] and M. R. Jacobs, Rev. Med. Microbiol. 6:77-93, 1995), using Mueller-Hinton altar (BBL Microbiology Systems, Cockeysville, Md.) supplemented with 5% sheep blood. Standard quality control strains, including Streptococcus pneumoniae ATCC 49619, were included in each run of agar dilution MICs.

pneumococcal strains = test: Microbroth dilution MICs of strains tested by time-kill and PAE; type: cell-based; conditions: Streptococcus pneumoniae, read-out: Microdilution MIC
Procedure, shortened: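 Broth MICs per NCCLS in cation-adjusted Mueller-Hinton broth with 5% lysed defibrinated horse blood. Used for 12 time-kill and 6 PAE strains. S. pneumoniae ATCC 49619 run as quality control.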

[3] = test system: pneumococci (5 quinolone susceptible and 1 resistant strains); test: Post-antibiotic effect (PAE) testing; type: cell-based, Streptococcus pneumoniae
Procedure, shortened: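 Pneumococci (~5×10^6 cfu/ml) in MHB with 5% lysed horse blood were exposed 1 h at 35 °C, the quinolone-resistant strain at 5×MIC, then diluted 1:1000. Viable counts every 2 h until McFarland #1 turbidity. PAE = T − C, the 1 log10 regrowth time versus untreated control; mean of two assays ±SD.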

[4] = all 207 strains (64 penicillin susceptible, 68 intermediate, 75 resistant)
[5] = agar dilution, 28 strains with ciprofloxacin MICs ≧8.0 μg/ml

Molecule `Cc1c(F)c(N2CCNC(C)C2)cc2c1c(=O)c(C(=O)O)cn2C1CC1` (centres unmarked) [Grepafloxacin, grepafloxacin] has an MIC50 ([1]; Penicillin I strains) of 0.125 µg/mL (≈ 0.348 µM), an MIC90 ([1]; Penicillin I strains) of 0.5 µg/mL (≈ 1.39 µM) and an MIC ([1]; Penicillin I strains) of 0.03 to 0.5 µg/mL (≈ 0.0835 to 1.39 µM). For the same molecule, the MIC50 ([1]; Penicillin R strains) was 0.25 µg/mL (≈ 0.696 µM), the MIC90 ([1]; Penicillin R strains) was 0.5 µg/mL (≈ 1.39 µM) and the MIC ([1]; Penicillin R strains) was 0.03 to 0.5 µg/mL (≈ 0.0835 to 1.39 µM). The MIC50 ([1]; Penicillin S strains) was 0.125 µg/mL (≈ 0.348 µM), the MIC90 ([1]; Penicillin S strains) was 0.5 µg/mL (≈ 1.39 µM) and the MIC ([1]; Penicillin S strains) was 0.03 to 1 µg/mL (≈ 0.0835 to 2.78 µM). For the same molecule, the MIC50 [1, 4] was 0.125 µg/mL (≈ 0.348 µM), the MIC90 [1, 4] was 0.5 µg/mL (≈ 1.39 µM) and the MIC50 ([2]; Streptococcus pneumoniae) was 4 µg/mL (≈ 11.1 µM). It also gave an MIC90 ([2]; Streptococcus pneumoniae) of 8 µg/mL (≈ 22.3 µM), an MIC ([2]; Streptococcus pneumoniae, read-out: MICs in strains with three or four QRDR mutations, 20 strains, bound holds in all 20 (ciprofloxacin, levofloxacin, sparfloxacin), 19 (grepafloxacin), 10 (trovafloxacin), 18 (gemifloxacin)) of over 1 µg/mL and an MIC ([2]; Streptococcus pneumoniae, read-out: MICs in strains with three or four QRDR mutations, 21 strains, bound holds in all 21 (ciprofloxacin, levofloxacin, sparfloxacin), 20 (grepafloxacin), 11 (trovafloxacin), 19 (gemifloxacin)) of at least 1 µg/mL. It also gave an MIC ([2]; Streptococcus pneumoniae, strain 1, ParC S79-F, ParE I460-V, GyrA S81-F, GyrB None) of 4 µg/mL (≈ 11.1 µM), an MIC ([2]; Streptococcus pneumoniae, strain 1, ParC S79-F, ParE I460-V, GyrA S83-F, GyrB None) of 4 µg/mL (≈ 11.1 µM) and an MIC ([2]; Streptococcus pneumoniae, strain 2, ParC S79-Y, ParE I460-V, GyrA None, GyrB None) of 0.5 µg/mL (≈ 1.39 µM). For the same molecule, the MIC ([2]; Streptococcus pneumoniae, strain 3, ParC D83-N, ParE I460-V, GyrA S81-F, GyrB None) was 0.5 µg/mL (≈ 1.39 µM), the MIC ([2]; Streptococcus pneumoniae, strain 3, ParC D83-N, ParE I460-V, GyrA S83-F, GyrB None) was 0.5 µg/mL (≈ 1.39 µM) and the MIC ([2]; Streptococcus pneumoniae, strain 4, ParC S79-F, ParE I460-V, GyrA S81-F, GyrB None) was 1 µg/mL (≈ 2.78 µM). For the same molecule, the MIC ([2]; Streptococcus pneumoniae, strain 4, ParC S79-F, ParE I460-V, GyrA S83-F, GyrB None) was 1 µg/mL (≈ 2.78 µM), the MIC ([2]; Streptococcus pneumoniae, strain 5, ParC R95-C, ParE D435-N, GyrA S81-F, GyrB None) was 1 µg/mL (≈ 2.78 µM) and the MIC ([2]; Streptococcus pneumoniae, strain 5, ParC R95-C, ParE D435-N, GyrA S83-F, GyrB None) was 1 µg/mL (≈ 2.78 µM). It also gave an MIC ([2]; Streptococcus pneumoniae, strain 6, ParC S79-Y, ParE I460-V, GyrA E85-K, GyrB None) of 2 µg/mL (≈ 5.56 µM), an MIC ([2]; Streptococcus pneumoniae, strain 6, ParC S79-Y, ParE I460-V, GyrA E87-K, GyrB None) of 2 µg/mL (≈ 5.56 µM) and an MIC ([2]; Streptococcus pneumoniae, strain 7, ParC None, ParE I460-V, GyrA None, GyrB None) of 1 µg/mL (≈ 2.78 µM). The MIC ([2]; Streptococcus pneumoniae, strain 8, ParC S79-Y, ParE None, GyrA None, GyrB None) was 1 µg/mL (≈ 2.78 µM), the MIC ([2]; Streptococcus pneumoniae, strain 9, ParC S79-Y, ParE None, GyrA None, GyrB None) was 1 µg/mL (≈ 2.78 µM) and the MIC ([2]; Streptococcus pneumoniae, strain 10, ParC S79-F, ParE I460-V, GyrA S81-C, GyrB None) was 2 µg/mL (≈ 5.56 µM). For the same molecule, the MIC ([2]; Streptococcus pneumoniae, strain 10, ParC S79-F, ParE I460-V, GyrA S83-C, GyrB None) was 2 µg/mL (≈ 5.56 µM), the MIC ([2]; Streptococcus pneumoniae, strain 11, ParC S79-F, ParE I460-V, GyrA S81-F, GyrB None) was 4 µg/mL (≈ 11.1 µM) and the MIC ([2]; Streptococcus pneumoniae, strain 11, ParC S79-F, ParE I460-V, GyrA S83-F, GyrB None) was 4 µg/mL (≈ 11.1 µM). For the same molecule, the MIC ([2]; Streptococcus pneumoniae, strain 12, ParC S79-F, ParE I460-V, GyrA None, GyrB D435-N) was 4 µg/mL (≈ 11.1 µM), the MIC ([2]; Streptococcus pneumoniae, strain 13, ParC S79-F, ParE I460-V, GyrA None, GyrB E474-K) was 2 µg/mL (≈ 5.56 µM) and the MIC ([2]; Streptococcus pneumoniae, strain 14, ParC S79-F, ParE I460-V, GyrA S81-F, GyrB None) was 4 µg/mL (≈ 11.1 µM). For the same molecule, the MIC ([2]; Streptococcus pneumoniae, strain 14, ParC S79-F, ParE I460-V, GyrA S83-F, GyrB None) was 4 µg/mL (≈ 11.1 µM), the MIC ([2]; Streptococcus pneumoniae, strain 15, ParC 79-F, ParE I460-V, GyrA S83-F, GyrB None) was 4 µg/mL (≈ 11.1 µM) and the MIC ([2]; Streptococcus pneumoniae, strain 15, ParC S79-F, ParE I460-V, GyrA S81-F, GyrB None) was 4 µg/mL (≈ 11.1 µM). The MIC ([2]; Streptococcus pneumoniae, strain 16, ParC S79-F, ParE I460-V, GyrA S81-F, GyrB None) was 4 µg/mL (≈ 11.1 µM), the MIC ([2]; Streptococcus pneumoniae, strain 16, ParC S79-F, ParE I460-V, GyrA S83-F, GyrB None) was 4 µg/mL (≈ 11.1 µM) and the MIC ([2]; Streptococcus pneumoniae, strain 17, ParC D83-N, ParE None, GyrA S81-F, GyrB None) was 4 µg/mL (≈ 11.1 µM). It also gave an MIC ([2]; Streptococcus pneumoniae, strain 17, ParC D83-N, ParE None, GyrA S83-F, GyrB None) of 4 µg/mL (≈ 11.1 µM), an MIC ([2]; Streptococcus pneumoniae, strain 18, ParC S79-F, ParE I460-V, GyrA S81-F, GyrB None) of 4 µg/mL (≈ 11.1 µM) and an MIC ([2]; Streptococcus pneumoniae, strain 18, ParC S79-F, ParE I460-V, GyrA S83-F, GyrB None) of 4 µg/mL (≈ 11.1 µM). For the same molecule, the MIC ([2]; Streptococcus pneumoniae, strain 19, ParC S79-F, ParE I460-V, GyrA S81-F, GyrB None) was 4 µg/mL (≈ 11.1 µM), the MIC ([2]; Streptococcus pneumoniae, strain 19, ParC S79-F, ParE I460-V, GyrA S83-F, GyrB None) was 4 µg/mL (≈ 11.1 µM) and the MIC ([2]; Streptococcus pneumoniae, strain 20, ParC S79-F, ParE I460-V, GyrA E85-K, GyrB None) was 4 µg/mL (≈ 11.1 µM). For the same molecule, the MIC ([2]; Streptococcus pneumoniae, strain 20, ParC S79-F, ParE I460-V, GyrA E87-K, GyrB None) was 4 µg/mL (≈ 11.1 µM), the MIC ([2]; Streptococcus pneumoniae, strain 21, ParC S79-F, ParE I460-V, GyrA S81-F, GyrB None) was 4 µg/mL (≈ 11.1 µM) and the MIC ([2]; Streptococcus pneumoniae, strain 21, ParC S79-F, ParE I460-V, GyrA S83-F, GyrB None) was 4 µg/mL (≈ 11.1 µM). It also gave an MIC ([2]; Streptococcus pneumoniae, strain 22, ParC S79-F, ParE I460-V, GyrA S81-Y, GyrB None) of 4 µg/mL (≈ 11.1 µM), an MIC ([2]; Streptococcus pneumoniae, strain 22, ParC S79-F, ParE I460-V, GyrA S83-Y, GyrB None) of 4 µg/mL (≈ 11.1 µM) and an MIC50 [2, 5] of 4.0 µg/mL (≈ 11.1 µM). For the same molecule, the MIC90 [2, 5] was 8.0 µg/mL (≈ 22.3 µM), the MIC Range [2, 5] was 0.5 to 16.0 µg/mL and the MIC Range ([2]; agar dilution, 28 strains with ciprofloxacin MICs ≧8.0 μg/ml, listed as grepafloxacin) was 0.5 to 16 µg/mL. The MIC (pneumococcal strains; strain 1 (S) penicillin susceptible) was 0.06 µg/mL (≈ 0.167 µM), the MIC (pneumococcal strains; strain 2 (S) penicillin susceptible) was 0.06 µg/mL (≈ 0.167 µM) and the MIC (pneumococcal strains; strain 3 (S) penicillin susceptible, quinolone-resistant) was 16 µg/mL (≈ 44.5 µM). For the same molecule, the MIC (pneumococcal strains; strain 4 (S) penicillin susceptible, quinolone-resistant) was 8 µg/mL (≈ 22.3 µM), the MIC (pneumococcal strains; strain 5 (I) penicillin intermediate) was 0.125 µg/mL (≈ 0.348 µM) and the MIC (pneumococcal strains; strain 6 (I) penicillin intermediate) was 0.125 µg/mL (≈ 0.348 µM). The MIC (pneumococcal strains; strain 7 (I) penicillin intermediate) was 0.125 µg/mL (≈ 0.348 µM), the MIC (pneumococcal strains; strain 8 (I) penicillin intermediate) was 0.125 µg/mL (≈ 0.348 µM) and the MIC (pneumococcal strains; strain 9 (R) penicillin resistant) was 0.25 µg/mL (≈ 0.696 µM). The MIC (pneumococcal strains; strain 10 (I)) was 0.125 µg/mL (≈ 0.348 µM), the MIC (pneumococcal strains; strain 11 (R) penicillin resistant) was 0.125 µg/mL (≈ 0.348 µM) and the MIC (pneumococcal strains; strain 12 (R) penicillin resistant) was 0.25 µg/mL (≈ 0.696 µM). The PAE ([3]; 5×MIC, quinolone resistant strain) was 1.5 h and the PAE ([3]; 10×MIC for 1 h, range over 5 quinolone susceptible strains) was 0.3 to 2.6 h.
